Source: patent US8871756B2 (Hoffmann-La Roche Inc., priority 2011, dated 2014)

What follows are molecules tested on RSV Long strain (assay: Viral cytopathic effect (CPE) assay, anti-RSV activity). Settings: human respiratory syncytial virus, 144 h, RSV Long strain (ATCC); cell viability after 6 days, Cell Counting kit-8.
Assay type: cell-based, Respiratory Syncytial Virus
Procedure, shortened: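 Cells (6×10^3/well, DMEM with 10% FBS) were infected next day with RSV Long strain, at a dose giving approximately 80–90% CPE, alongside serial half-log compound dilutions. Viability was read after 6 days by CCK-8 absorbance at 450 nm (reference 630 nm), and EC50 was derived from it.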

In order of rising EC50:
1. [2H]C([2H])([2H])c1ccc2nc(N3CCS(=O)(=O)c4ccccc4C3)cc(NCC3(CN)COC3)c2c1 [Example 3-65, N-{[3-(Aminomethyl)oxetan-3-yl]methyl}-2-(1,1-dioxido-2,3-dihydro-1,4-benzothiazepin-4(5H)-yl)-6-trideuteriomethylquinolin-4-amine]  0.002 µM
2. NCC1(CNc2cc(N3CC[S+]([O-])c4ccccc4C3)nc3ccc(Cl)cc23)COC1 (stereo not drawn) [Example 18-9, N-{[3-(Aminomethyl)oxetan-3-yl]methyl}-6-chloro-2-(1-oxido-2,3-dihydro-1,4-benzothiazepin-4(5H)-yl)quinolin-4-amine]  0.005 µM
3. NCCNc1cc(N2CCS(=O)(=O)c3ccccc3C2)nc2ccccc12 [Example 9-15, N-[2-(1,1-Dioxido-2,3-dihydro-1,4-benzothiazepin-4(5H)-yl)quinolin-4-yl]ethane-1,2-diamine]  0.012 µM
4. Cc1ccc2nc(N3CCS(=O)(=O)c4ccccc4C3)cc(NCC3CCCN3)c2c1 (stereo not drawn) [Example 3-35, 2-(1,1-Dioxido-2,3-dihydro-1,4-benzothiazepin-4(5H)-yl)-6-methyl-N-(pyrrolidin-2-ylmethyl)quinolin-4-amine]  0.013 µM
5. Cc1ccc2nc(N3CCS(=O)(=O)c4ccccc4C3)cc(N3CCC(C)(N)C3)c2c1 (stereo not drawn) [Example 64, 1-[2-(1,1-Dioxido-2,3-dihydro-1,4-benzothiazepin-4(5H)-yl)-6-methylquinolin-4-yl]-3-methylpyrrolidin-3-amine]  0.035 µM
6. Cc1ccc2nc(N3CCS(=O)(=O)c4ccccc4C3)cc(NC(=O)CN)c2c1 [Example 40-1, N-[2-(1,1-Dioxido-2,3-dihydro-1,4-benzothiazepin-4(5H)-yl)-6-methylquinolin-4-yl]glycinamide]  0.039 µM
7. Cc1ccc2nc(N3CCS(=O)(=O)c4ccccc4C3)cc(NCCO)c2c1 [Example 3-38, 2-{[2-(1,1-Dioxido-2,3-dihydro-1,4-benzothiazepin-4(5H)-yl)-6-methylquinolin-4-yl]amino}ethanol]  0.0439 µM
8. Cc1ccc2nc(N3CCS(=O)(=O)c4ccccc4C3)cc(NC3CCN(C4COC4)C3)c2c1 (stereo not drawn) [Example 44-1, 2-(1,1-Dioxido-2,3-dihydro-1,4-benzothiazepin-4(5H)-yl)-6-methyl-N-[1-(oxetan-3-yl)pyrrolidin-3-yl]quinolin-4-amine]  0.084 µM
9. Cc1ccc2nc(N3CCS(=O)(=O)c4ccccc4C3)cc(N[C@@H](C)C(N)=O)c2c1 [Example 36-4, N^˜2^˜-[2-(1,1-dioxido-2,3-dihydro-1,4-benzothiazepin-4(5H)-yl)-6-methylquinolin-4-yl]-L-alaninamide]  0.138 µM
10. Cc1ccc2nc(N3CCS(=O)(=O)c4ccccc4C3)cc(NCCCO)c2c1 [Example 9-5, 3-{[2-(1,1-Dioxido-2,3-dihydro-1,4-benzothiazepin-4(5H)-yl)-6-methylquinolin-4-yl]amino}propan-1-ol]  0.179 µM
11. COc1ccc2c(c1)CN(c1cc(N)c3cc(C)ccc3n1)CCS2(=O)=O [Example 20-2, 2-(7-Methoxy-1,1-dioxido-2,3-dihydro-1,4-benzothiazepin-4(5H)-yl)-6-methylquinolin-4-amine]  0.31 µM
12. Cc1ccc2c(NCCCN)cc(N3CCS(=O)(=O)c4ccccc4C3)nc2c1 [Example 17-7, N-[2-(1,1-Dioxido-2,3-dihydro-1,4-benzothiazepin-4(5H)-yl)-7-methylquinolin-4-yl]propane-1,3-diamine]  0.642 µM
13. CCNC(=O)Nc1cc(N2CCC(F)(F)c3ccccc3C2)nc2ccc(C)cc12 [Example 110-14]  0.648 µM
14. C#Cc1ccc2nc(N3CCS(=O)(=O)c4ccccc4C3)cc(NCCCN)c2c1 [Example 54, N-[2-(1,1-Dioxido-2,3-dihydro-1,4-benzothiazepin-4(5H)-yl)-6-ethynylquinolin-4-yl]propane-1,3-diamine]  4.8 µM
15. Cc1ccc2nc(N3CCS(=O)(=O)c4ccccc4C3)cc(CC[C@@H]3COC(N)=N3)c2c1 [Example 94, (4R)-4-{2-[2-(1,1-Dioxido-2,3-dihydro-1,4-benzothiazepin-4(5H)-yl)-6-methylquinolin-4-yl]ethyl}-4,5-dihydro-1,3-oxazol-2-amine]  6.53 µM
